# Where two headings read alike, the source gives them in different places.
# Columns and labels:
# human PC3 lung tumors = assay: Lung tumors established by direct injection of PC3 cells into the lungs of immunodeficient mice; assay type: in vivo; conditions: suramin alone, three doses of 20 mg/kg (n=3)
# Protocol: (§1) Animal care was in accordance with the guidelines at the Ohio State University. Several human tumor models were used, including (a) lung metastases derived from intravenous injection of human PC3-LN tumor cells, (b) lung tumors derived from direct injection of human PC3 cells in lungs, and (c) subcutaneously implanted PC3 tumors. Four studies were performed. In all studies, drug treatment was administered intravenously via a tail vein, after the tumor was established. The first and second studies used the intravenous PC3-LN lung metastasis model. Briefly, human PC3-LN cells ([…] in 0.1 ml physiologic saline) were injected intravenously, via a tail vein, into immunodeficient mice. […] Treatment was given twice weekly for three weeks. […] The lung surface area (counted as number of pixel) occupied by the tumor was calculated as a fraction of the total lung area, using Adobe PhotoShop. The number of tumor cells in residual tumors and the fraction of apoptotic cells in each tumor were also determined microscopically. […] This was determined by counting the number of non-apoptotic tumor cells in randomly selected microscopic fields at 400× magnification. […] In the case of combination therapy where fewer than 5 tumor nodules remained per animal, all residual cells (between 20 to 600 cells per animal) were counted.
# [1] = test system: rat MAT-LyLu tumor cells, human prostate PC3 tumor cells, PC3-LN cells; assay: Reversal of CM/FGF-induced resistance by suramin; assay type: cell-based
# Protocol: The study was performed using rat MAT-LyLu tumor cells (shown here) and human prostate PC3 and PC3-LN tumor cells. The cytotoxic effect was detected by measuring the changes in BrdU incorporation in treated samples relative to control samples.
# subcutaneous PC3 tumors = conditions: suramin 10 mg/kg, doxorubicin 5 mg/kg, twice weekly for 3 weeks
# Protocol: Briefly, PC3 cells (5×10^6 cells) were injected subcutaneously.
# [2] = test system: Human prostate PC3 tumor cells; assay: cells; assay type: cell-based; conditions: read-out: IC50, suramin concentration required to result in 50% reduction in BrdU incorporation
# Protocol: PC3 and PC3-LN tumor cells. […] […].
# Cells are harvested from subconfluent cultures using trypsin and resuspended in fresh medium before plating. […] Cells are plated in 96 well microtiter plates at a density such that confluence would not be achieved at the end of the drug treatment period. Cells are allowed to attach to the plate surface by growing in drug-free medium for 20 to 24 hr. […] The drug effect should be measured as inhibition of BrdU incorporation, e.g., according to the Cell Proliferation ELISA BrdU (Boehringer Mannheim).
# [3] = test system: human prostate PC3-LN tumor cells; assay: cells; assay type: cell-based; conditions: read-out: IC50, suramin concentration required to result in 50% reduction in BrdU incorporation
# in vivo = conditions: mouse, iv, 10 mg/kg
# Protocol: as §1
# rat MAT-LyLu tumor cells [4] = assay: Cytotoxicity of suramin alone, reduction of BrdU incorporation; assay type: cell-based; conditions: read-out: IC50, suramin concentration required to result in 50% reduction in BrdU incorporation
# [5] = test system: human PC3-LN lung metastases
# Protocol: Animal care was in accordance with the guidelines at the Ohio State University. Several human tumor models were used, including (a) lung metastases derived from intravenous injection of human PC3-LN tumor cells, (b) lung tumors derived from direct injection of human PC3 cells in lungs, and (c) subcutaneously implanted PC3 tumors. Four studies were performed. In all studies, drug treatment was administered intravenously via a tail vein, after the tumor was established. The first and second studies used the intravenous PC3-LN lung metastasis model. Briefly, human PC3-LN cells ([…] in 0.1 ml physiologic saline) were injected intravenously, via a tail vein, into immunodeficient mice. […] Treatment was given twice weekly for three weeks. […] Three days after completion of drug treatments, animals were euthanized and their lungs removed, fixed in Bouin's solution to visualize tumor nodules, and then processed for histologic evaluation. […] The lung surface area (counted as number of pixel) occupied by the tumor was calculated as a fraction of the total lung area, using Adobe PhotoShop. The number of tumor cells in residual tumors and the fraction of apoptotic cells in each tumor were also determined microscopically. Because apoptotic cells disappear over time, a second measure of the extent of apoptosis was the density of non-apoptotic cells in the residual tumors. This was determined by counting the number of non-apoptotic tumor cells in randomly selected microscopic fields at 400× magnification. […] In the case of combination therapy where fewer than 5 tumor nodules remained per animal, all residual cells (between 20 to 600 cells per animal) were counted.
# clinical = conditions: human, plasma, 240 mg/m^2
# [6] = Jodrell et al (1994); cited from earlier work
# rat MAT-LyLu tumor cells [7] = assay: Reversal of CM-induced resistance by FGF antibodies and suramin, BrdU incorporation; assay type: cell-based; conditions: CM of histocultures of lung metastases
# Protocol: The source of CM was lung histocultures for the aFGF experiment, and early monolayer lung cultures for the bFGF experiment. The study used four controls: no CM (left solid curves, open circles); addition of 5 μg/ml aFGF or bFGF antibody but no CM (inverted filled triangle, overlaps with the left control curve); addition of CM but no antibody (right solid curves, open square); addition of CM plus a nonspecific antibody, IgG (5 μg/ml, filled diamond, overlaps with the right CM-control curve). Dotted curves, from right to left, addition of aFGF or bFGF antibody concentrations of 0.05 μg/ml (filled circle); 0.1 μg/ml (filled square); 1 or 0.5 μg/ml (filled triangle); and 5 μg/ml (open inverted triangle). […] Similar results were also found for human PC3 prostate tumor cells.
# The first study used specific inhibitors of extracellular aFGF and bFGF, i.e., monoclonal antibodies (FIG. 2A). […] In the presence of the active CM, the bFGF antibody produced a concentration-dependent reversal of the CM-induced chemoresistance, with complete reversal by 5 microgram/ml antibody, whereas a nonspecific antibody (i.e., non-immune rabbit IgG) had no effect. For aFGF, the antibody treatment partially reversed the CM-induced resistance; the maximum reversal was about 60% that was obtained with 1 microgram/ml antibody with no significant additional reversal at a 5-fold higher concentration. The second study evaluated the effect of removing aFGF and/or bFGF from the active CM by immunoprecipitation. Removal of bFGF abolished the resistance, whereas removal of aFGF only partially reversed the CM effect. These two studies indicate that both aFGF and bFGF were involved in the resistance, but had different roles.
# This study was performed using the rat MAT-LyLu tumor cells as the model tumor cells and using doxorubicin and paclitaxel as the model anticancer agents. The CM used to induce resistance was collected from histocultures of lung metastases (see Table 1). Five microgram/ml anti-bFGF antibody was added.
# [8] = doxorubicin study: suramin 10 mg/kg, doxorubicin 5 mg/kg, intravenous twice weekly for three weeks
# [9] = paclitaxel study: suramin 10 mg/kg, paclitaxel 15 mg/kg, intravenous twice weekly for three weeks
# [10] = suramin 10 mg/kg, doxorubicin 5 mg/kg, intravenous twice weekly for three weeks
structure (smiles),measurement,setting,value
Cc1ccc(C(=O)Nc2ccc(S(=O)(=O)O)c3cc(S(=O)(=O)O)cc(S(=O)(=O)O)c23)cc1NC(=O)c1cccc(NC(=O)Nc2cccc(C(=O)Nc3cc(C(=O)Nc4ccc(S(=O)(=O)O)c5cc(S(=O)(=O)O)cc(S(=O)(=O)O)c45)ccc3C)c2)c1 [Suramin],animals free of tumors,human PC3 lung tumors,No animals
same,concentration needed to fully reverse the FGF-induced resistance,[1],1 to 15 µM
same,effect on tumor growth,subcutaneous PC3 tumors,no antitumor activity
same,IC50,[2],93 µM
same,IC50,[3],98 µM
same,concentration at 72 h,in vivo,~10 µM
same,IC50,rat MAT-LyLu tumor cells [4],235 µM
same,% Apoptotic cells per tumor,[5]; [8],10 ± 7%
same,"Density of nonapoptotic cells in residual tumors, cells/field",[5]; [8],139 ± 30 cells/field
same,% Apoptotic cells per tumor,[5]; [9],4 ± 3%
same,"Density of nonapoptotic cells in residual tumors, cells/field",[5]; [9],185 ± 104 cells/field
same,antitumor effect and toxicity of suramin alone,[5]; suramin 10 mg/kg alone,"no significant antitumor effect, nor toxicity"
same,% Lung surface area occupied by tumor,[5]; [10],7 ± 3%
same,% Tumor-free animals,[5]; [10],0%
same,concentration at 0 h,clinical,~90 µg/mL
same,concentration at 96 h,clinical,~18 µg/mL
same,total body clearance,[6],0.0095 liter/hour/m^2
same,suramin concentration that completely inhibited the bFGF-induced resistance,rat MAT-LyLu tumor cells [7],1 to 2 µM

# — patent US20040010001A1, “Methods and compositions for modulating cell proliferation and cell death” (priority 1999, published 2004)
